# Experiments:
# [1] = target: T1, human TSH-R (Homo sapiens, UniProt P16473); assay: traditional bioassay: cAMP released into culture medium of lulu 1 cells, measured by RIA; format: cell-based; settings: NaCl-free Hank's medium, 2 mM IBMX, TSH 1 mU/ml, TSAb (90/672) 10 mlU/ml
# T1 construct: a pSVL vector containing the coding region of human TSH-R; expressed in transfected cells; host or cells: CHO-K1 clone JP09 (pSVL-hTSHR), further transfected with cAMP-luciferase to give lulu 1 cells
# Description: 44 of the GD sera described above, (35 TBII (TSH-R) positive) and the TSAb standard, were also assayed in a traditional bioassay in which CAMP released into the culture medium was measured by RIA. Lulu 1 were seeded in 96 well plates and the assay was performed in 100 μl/well NaCl-free Hank's medium, containing 2 mM IBMX and 10 μl individual GD or pooled euthyroid serum. CAMP was measured by the CAMP [^3H] assay system (Amersham) as described by Ludgate et al in Exp Clin Endo 100 73–4.
# [2] = target: T1, human TSH-R; assay: luminescent bioassay: light output of lulu 1 cells (JP09 CHO cells expressing human TSH-R, transfected with cAMP-luciferase); format: cell-based; settings: concentration as in row: TSH 1 mU/ml, TSAb (90/672) 10 mlU/ml, Forskolin 10^-5M
# Description: Culture medium for the cells was RPMI; 10% foetal calf serum (FCS); 1% glutamine; 1% pyruvate; 2% penicillin/streptomycin (and 2.5 μg/ml puromycin, when amplifying cells for assay). 96 well plates were seeded with 5×10^4 cells prepared according to Example 1 and cultured overnight (approximately 16 hours) at 37° C. in a water-saturated incubator. They were then cultured for a second night in medium containing 10% charcoal stripped calf serum instead of FCS (available from Gibco). Basal light output was measured, in triplicate wells, in the presence of 100 μl of the medium containing 10% charcoal stripped serum. […] The final result was expressed as relative light units (RLU) obtained by the ratio of standard:basal or test:basal.
# Following the incubation period, supernatants were removed from the wells and the cells are washed twice in phosphate buffered saline. Light output was measured using a commercially-available kit from the Promega Corporation, no. […]
# The selected clones were cultured overnight in medium with 10% charcoal-stripped calf serum (Sigma) in place of FCS, followed by 4 hours' incubation with varying concentrations of bovine TSH. Light output was measured by luciferase reporter assay (Promega) in a Berthold luminometer. Results were calculated as the ratio of light output in the presence of TSH:light output in the absence of TSH and expressed as relative light units (RLUs). […]
# T1 sequence (P16473 21-764): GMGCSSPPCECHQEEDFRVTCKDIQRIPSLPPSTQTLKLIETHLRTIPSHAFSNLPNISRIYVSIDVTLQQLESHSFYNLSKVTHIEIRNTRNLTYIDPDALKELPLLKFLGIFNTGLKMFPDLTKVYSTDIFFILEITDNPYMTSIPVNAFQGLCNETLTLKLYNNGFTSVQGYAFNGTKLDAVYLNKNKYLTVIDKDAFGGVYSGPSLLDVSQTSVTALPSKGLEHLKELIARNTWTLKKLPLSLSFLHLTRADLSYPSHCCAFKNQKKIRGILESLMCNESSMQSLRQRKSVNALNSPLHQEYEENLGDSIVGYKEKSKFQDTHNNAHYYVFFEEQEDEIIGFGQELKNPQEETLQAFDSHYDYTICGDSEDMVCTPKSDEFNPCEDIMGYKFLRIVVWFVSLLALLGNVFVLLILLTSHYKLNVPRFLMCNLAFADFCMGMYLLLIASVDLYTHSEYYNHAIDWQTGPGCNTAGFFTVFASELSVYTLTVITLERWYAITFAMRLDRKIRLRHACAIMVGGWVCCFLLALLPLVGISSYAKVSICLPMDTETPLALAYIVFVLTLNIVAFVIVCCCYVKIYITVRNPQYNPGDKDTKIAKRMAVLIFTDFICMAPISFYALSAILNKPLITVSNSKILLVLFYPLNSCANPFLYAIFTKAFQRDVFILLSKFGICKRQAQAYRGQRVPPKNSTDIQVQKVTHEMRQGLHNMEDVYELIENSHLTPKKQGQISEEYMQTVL
substance,measurement,setting,value
thyrotropin [TSH],"pmole cAMP (mean, n=2)",[1],9.4 pmol
same,RLUs (mean luminometer readings (n=3) with background light emission subtracted),[2],1293 RLUs
